In ChEMBL document CHEMBL1938241, “Design, synthesis, and activity evaluation of broad-spectrum small-molecule inhibitors of anti-apoptotic Bcl-2 family proteins: characteristics of broad-spectrum protein binding and its effects on anti-tumor activity” (Bioorg Med Chem Lett, 2012):

Assays:
Bcl-2-like protein 1 = Bcl-2-like protein 1 (Homo sapiens, UniProt Q07817); test: Binding affinity to Bcl-xL by competitive fluorescence polarization assay
[1] = target: Induced myeloid leukemia cell differentiation protein Mcl-1 (Homo sapiens, UniProt Q07820); test: Binding affinity to Mcl-1 by competitive fluorescence polarization assay
Sequence of Induced myeloid leukemia cell differentiation protein Mcl-1 (Q07820 whole entry): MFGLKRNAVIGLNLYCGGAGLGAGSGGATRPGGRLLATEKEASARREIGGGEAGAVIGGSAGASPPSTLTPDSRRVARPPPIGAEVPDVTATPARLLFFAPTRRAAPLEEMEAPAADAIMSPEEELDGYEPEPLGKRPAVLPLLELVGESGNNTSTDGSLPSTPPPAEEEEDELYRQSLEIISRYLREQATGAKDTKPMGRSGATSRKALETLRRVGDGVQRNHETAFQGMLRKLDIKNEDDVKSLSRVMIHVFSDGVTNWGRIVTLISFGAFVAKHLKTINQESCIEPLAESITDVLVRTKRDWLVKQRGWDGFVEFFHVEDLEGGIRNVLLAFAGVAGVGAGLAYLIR

[2] = target: Apoptosis regulator Bcl-2 (Homo sapiens, UniProt P10415); test: Binding affinity to Bcl-2 by competitive fluorescence polarization assay
Sequence of Apoptosis regulator Bcl-2 (P10415 whole entry): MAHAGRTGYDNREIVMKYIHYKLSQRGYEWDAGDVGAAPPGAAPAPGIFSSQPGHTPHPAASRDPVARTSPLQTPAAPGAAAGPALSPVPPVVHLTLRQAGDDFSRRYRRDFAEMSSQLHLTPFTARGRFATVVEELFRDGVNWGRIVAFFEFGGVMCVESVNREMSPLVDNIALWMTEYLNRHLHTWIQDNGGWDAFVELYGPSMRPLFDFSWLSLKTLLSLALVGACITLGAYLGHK

Raji [3] = test: Cytotoxicity against human Raji cells expressing Bcl-xL, Bcl-2 and Mcl-1 at 100 ug/ml after 72 hrs by MTT assay relative to control; format: functional; conditions: read-out: GI
MDA-MB-435 [4] = test: Cytotoxicity against human MDA-MB-435 cells expressing Bcl-xL, Bcl-2 and Mcl-1 at 100 ug/ml after 72 hrs by MTT assay relative to control; format: functional; conditions: MDA-MB-435, 72 h, read-out: GI
HCT-116 = test: Cytotoxicity against human HCT116 cells expressing Bcl-xL, Bcl-2 and Mcl-1 after 72 hrs by MTT assay; format: functional, cell-based; conditions: HCT-116, 72 h
MDA-MB-435 [5] = test: Cytotoxicity against human MDA-MB-435 cells expressing Bcl-xL, Bcl-2 and Mcl-1 after 72 hrs by MTT assay; format: functional, cell-based; conditions: MDA-MB-435, 72 h
Raji [6] = test: Cytotoxicity against human Raji cells expressing Bcl-xL, Bcl-2 and Mcl-1 after 72 hrs by MTT assay; format: functional, cell-based

Sequence of Bcl-2-like protein 1 (Q07817 whole entry): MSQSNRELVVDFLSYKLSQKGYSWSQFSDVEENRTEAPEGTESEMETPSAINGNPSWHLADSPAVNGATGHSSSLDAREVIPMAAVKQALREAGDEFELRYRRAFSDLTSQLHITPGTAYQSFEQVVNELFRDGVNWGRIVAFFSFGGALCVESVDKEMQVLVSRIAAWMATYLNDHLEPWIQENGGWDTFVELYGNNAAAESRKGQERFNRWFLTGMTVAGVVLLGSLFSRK

SMILES | Ki (Bcl-2-like protein 1) | Ki [1] | Ki [2] | inhibition of growth at 100 µg/mL (Raji [3]) | inhibition of growth at 100 µg/mL (MDA-MB-435 [4]) | IC50 (HCT-116) | IC50 (MDA-MB-435 [5]) | IC50 (Raji [6])
CC(=O)N[C@@H](CC(C)C)C(=O)Nc1ccc(C(=O)NS(=O)(=O)c2ccc(NCCSc3ccccc3)c([N+](=O)[O-])c2)cc1 | 5.82 µM | 1.8 µM | 3.78 µM | 58.3% | 25.6% | – | – | –
CC[C@H](C)[C@H](NC(C)=O)C(=O)Nc1ccc(C(=O)NS(=O)(=O)c2ccc(NCCSc3ccccc3)c([N+](=O)[O-])c2)cc1 | 4.84 µM | 2.29 µM | 3.38 µM | 40.9% | 13.5% | – | – | –
CSCC[C@H](NC(C)=O)C(=O)Nc1ccc(C(=O)NS(=O)(=O)c2ccc(NCCSc3ccccc3)c([N+](=O)[O-])c2)cc1 | 3.91 µM | 3.11 µM | 3.52 µM | 40.1% | 16% | – | – | –
CC(=O)N[C@@H](Cc1ccccc1)C(=O)Nc1ccc(C(=O)NS(=O)(=O)c2ccc(NCCSc3ccccc3)c([N+](=O)[O-])c2)cc1 | 3.42 µM | 3.11 µM | 3.39 µM | 26.8% | 36.6% | – | – | –
CC(=O)N[C@@H](Cc1c[nH]c2ccccc12)C(=O)Nc1ccc(C(=O)NS(=O)(=O)c2ccc(NCCSc3ccccc3)c([N+](=O)[O-])c2)cc1 | 6.45 µM | 4.03 µM | 0.83 µM | 31.8% | 9.36% | – | – | –
CC(=O)N[C@H](C(=O)Nc1ccc(C(=O)NS(=O)(=O)c2ccc(NCCSc3ccccc3)c([N+](=O)[O-])c2)cc1)C(C)C | 16.4 µM | 3.27 µM | 9.49 µM | 8.85% | 6.33% | – | – | –
O=C(Nc1ccc(C(=O)NS(=O)(=O)c2ccc(NCCSc3ccccc3)c([N+](=O)[O-])c2)cc1)c1ccccc1 | 2.51 µM | 4.16 µM | 1.67 µM | – | – | 136 µM | 59.9 µM | 39.8 µM
O=C(NS(=O)(=O)c1ccc(NCCSc2ccccc2)c([N+](=O)[O-])c1)c1ccc(NC(=O)c2ccccc2F)cc1 | 1.71 µM | 3.02 µM | 1.09 µM | – | – | 40 µM | 48.1 µM | 32.2 µM
O=C(Nc1ccc(C(=O)NS(=O)(=O)c2ccc(NCCSc3ccccc3)c([N+](=O)[O-])c2)cc1)c1cccc(F)c1 | 2.08 µM | 3.09 µM | 1.4 µM | – | – | > 168 µM | 59.5 µM | 39.4 µM
O=C(Nc1ccc(C(=O)NS(=O)(=O)c2ccc(NCCSc3ccccc3)c([N+](=O)[O-])c2)cc1)c1ccc(F)cc1 | 1.94 µM | 2.54 µM | 0.93 µM | – | – | 78.9 µM | 57.5 µM | 38.6 µM
O=C(NS(=O)(=O)c1ccc(NCCSc2ccccc2)c([N+](=O)[O-])c1)c1ccc(NC(=O)c2ccccc2Cl)cc1 | – | – | – | – | – | > 164 µM | 69.9 µM | 41.2 µM
O=C(Nc1ccc(C(=O)NS(=O)(=O)c2ccc(NCCSc3ccccc3)c([N+](=O)[O-])c2)cc1)c1cccc(Cl)c1 | – | – | – | – | – | 33.1 µM | 46.7 µM | 37.5 µM
O=C(Nc1ccc(C(=O)NS(=O)(=O)c2ccc(NCCSc3ccccc3)c([N+](=O)[O-])c2)cc1)c1ccc(Cl)cc1 | – | – | – | – | – | 43.4 µM | 49.9 µM | 37.5 µM
Cc1ccccc1C(=O)Nc1ccc(C(=O)NS(=O)(=O)c2ccc(NCCSc3ccccc3)c([N+](=O)[O-])c2)cc1 | – | – | – | – | – | 161 µM | 47.6 µM | 38.8 µM
Cc1cccc(C(=O)Nc2ccc(C(=O)NS(=O)(=O)c3ccc(NCCSc4ccccc4)c([N+](=O)[O-])c3)cc2)c1 | – | – | – | – | – | 169 µM | > 169 µM | 92.6 µM
Cc1ccc(C(=O)Nc2ccc(C(=O)NS(=O)(=O)c3ccc(NCCSc4ccccc4)c([N+](=O)[O-])c3)cc2)cc1 | – | – | – | – | – | 48.6 µM | 53 µM | 38.8 µM
O=C(Nc1ccc(C(=O)NS(=O)(=O)c2ccc(NCCSc3ccccc3)c([N+](=O)[O-])c2)cc1)c1ccc(Br)cc1 | 1.5 µM | 4.1 µM | 0.76 µM | – | – | 10.5 µM | 39.5 µM | 35 µM
COc1ccc(C(=O)Nc2ccc(C(=O)NS(=O)(=O)c3ccc(NCCSc4ccccc4)c([N+](=O)[O-])c3)cc2)cc1 | 1.27 µM | 3.11 µM | 0.8 µM | – | – | 14.6 µM | 36.1 µM | 22.9 µM
O=C(NS(=O)(=O)c1ccc(NCCSc2ccccc2)c([N+](=O)[O-])c1)c1ccc(NS(=O)(=O)c2ccccc2)cc1 | 2.29 µM | 7.22 µM | 15.2 µM | – | – | 163 µM | > 163 µM | > 163 µM
CN(C)CC[C@H](CSc1ccccc1)Nc1ccc(S(=O)(=O)NC(=O)c2ccc(N3CCN(Cc4ccccc4-c4ccc(Cl)cc4)CC3)cc2)cc1[N+](=O)[O-] [ABT 737] | – | – | – | 42.5% | 55.4% | 47.7 µM | > 123 µM | 93.5 µM
